Legend:
[1] = test system: DNA-LNP-induced plasma cytokine/chemokine levels; experiment: In vivo RO3150 and GSK690693 inhibition of DNA-LNP-induced cytokine release; set-up: species or system BALB/c mice; settings: pre-treatment before DNA-LNP: dexamethasone 200 μg IP, GSK690693 312.5 μg IP (about one hour prior), RO3150 60 μg IV (right before); plasma at 4 hours; FIGS. 3A-3H
Procedure: BALB/c mice were pre-treated with dexamethasone, GSK690693, or RO3150 before DNA-LNP administration, and plasma cytokine levels were measured at 4 hours post DNA-LNP treatment. The DNA-LNP was made up of (1) DNA plasmid (nanoplasmid expression cassette encoding hFIX); and (2) GenVoy-ILM™ LNP. GenVoy-ILM™ LNP contains ionizable lipid at 50%; DSPC at 10%; cholesterol 37.5%; and stabilizer (PEG-Lipid) at 2.5% (see Roces et al., Pharmaceutics, 2020 12, 1095). Pretreatment was carried out using 200 μg dexamethasone administered intraperitoneally about one hour prior to DNA-LNP administration; using 312.5 μg GSK69063 administered intraperitoneally about one hour prior to DNA-LNP administration; or using 60 μg […] administered intravenously right before DNA-LNP administration.

[2] = test system: interferon regulatory factor (IRF) pathway in THP1-Dual cells; experiment: In vitro H-151 inhibition of DNA-LNP-induced IRF activation (Lucia luciferase in THP1-Dual cell supernatant); assay type: cell-based; settings: 25 ng DNA-LNP/well, 24 hours, FIG. 1
Procedure: THP1-Dual™ cells (InvivoGen) were seeded in 96-well plates at a density of 45,000 cells/well. After overnight incubation, the cells were treated with 25 ng DNA-LNP/well in the presence of 0, 0.2 or 2.1 ng of small molecule STING inhibitor H-151 (InvivoGen), where the H-151 was provided either a) co-encapsulated with the DNA in the LNPs, or b) provided in a soluble form. After 24 hours incubation, activation of the interferon regulatory factor (IRF) pathway (“fold IRF activity”) was determined by measuring luminescence signal (Lucia luciferase) in the cell culture supernatant. The DNA-LNP was made up of (1) DNA plasmid (nanoplasmid expression cassette encoding human coagulation Factor IX (hFIX)) and (2) Lipid 5 (further described in Sabnis et al. and I.A. infra.), 50%; C14-PEG2000, 1.5%; cholesterol, 38.5%; and DSPC, 10%.

[3] = test system: DNA-LNP-induced plasma cytokines; experiment: In vivo LNP-encapsulated H-151 inhibition of DNA-LNP-induced cytokine release; set-up: species or system BALB/c mice; settings: H-151 encapsulated in 10 μg DNA-LNP, about 1-2 μg/mouse, 4 hours post injection
Procedure: BALB/c mice were injected with 10 μg DNA-LNP or 10 μg DNA-LNP encapsulating H-151. H-151 was provided at a dose of about 1-2 μg/mouse (about 0.04-0.08 mg/kg mouse) Cytokine levels in plasma were measured at 4 hours post injection. FIGS. 2A, 2B, 2C, and 2D illustrate the ability of H-151 encapsulated with the DNA-LNP to inhibit DNA-induced IFN-β (FIG. 2A), IFN-α (FIG. 2B), IFN-γ (FIG. 2C) and IL-6 (FIG. 2D). The DNA-LNP was as described in Example 1, above.

Compound	cytokine/chemokine levels induced by DNA-LNP [1]	effect on LNP-DNA-induced IRF activation (fold IRF activity), compared with soluble H-151 ([2]; H-151 co-encapsulated with the DNA in the LNP, 0.2 or 2.1 ng/well)	effect on LNP-DNA-induced IRF activation (fold IRF activity) ([2]; soluble H-151, 0.2 or 2.1 ng/well)	DNA-induced IFN-β in plasma ([3]; FIG. 2A)	DNA-induced IFN-α in plasma ([3]; FIG. 2B)	DNA-induced IFN-γ in plasma ([3]; FIG. 2C)	DNA-induced IL-6 in plasma ([3]; FIG. 2D)
CCn1c(-c2nonc2N)nc2c(C#CC(C)(C)O)ncc(OC[C@H]3CCCNC3)c21 [GSK690693]	reduced most cytokine/chemokine levels except IL-6 and KC/GRO	–	–	–	–	–	–
CCc1ccc(NC(=O)Nc2c[nH]c3ccccc23)cc1 [H-151]	–	more pronounced	had an inhibitory effect	inhibit	inhibit	inhibit	inhibit

— patent publication US20240350667A1, “Method of Enhancing Gene Therapy by Targeting cGAS-STING Pathway” (Spark Therapeutics, Inc., priority 2021, published 2024)
